The test system of series [1] is 20mer RNA oligonucleotide (spacer sequence designed to target the BFP gene). The series can be described thus: UV spectroscopy thermal melting analysis of duplexes. It is filed as binding. The following applies: 1 μM each strand, 10 mM sodium phosphate buffer pH 7.4. As to the method: All samples were prepared by mixing a stoichiometric amount of each strand (1 μM) in 10 mM sodium phosphate buffer at pH 7.4 (Table 8). The samples were pre-annealed at 95° C. for 5 mins and gradually cooled to room temperature prior to the melting experiment. UV melting experiments were performed using a Shimadzu UV-3600 Plus UV-Vis-NIR spectrophotometer equipped with a thermoelectrically controlled multicell holder. UV melting spectra were recorded after every 1° C. temperature change by monitoring the absorbance at 260 nm from 20° C. to 110° C. to 20° C., with a heating/cooling ramp rate of 1.0° C./min. The heating and cooling curves were overlapped to confirm reversible denaturation. All spectra were plotted on Origin 2020 and smoothed using a 20-point adjacent averaging algorithm. The first derivative plots of the melting curves were generated to determine the melting temperature for each duplex.

The subject of series [2] is Cas9 RNP using a sgRNA targeted to the HBB gene (R-01). The series can be described thus: Cas9 RNP editing at HBB in K562 cells (amplicon sequencing). The format is cell-based, human. The protocol: (§1) For Cas9 RNP assembly, 50 pmol of sgRNA (IDT, Alt-R CRISPR-Cas9 sgRNA) and 45 pmol of SpCas9 (CPO2, PNA BIO) were incubated at room temperature for 10 minutes in a 5 μL reaction in 1×3.1 Buffer (B7203S, NEB). For nucleofections, 1×10^6 cells, 5 μL Cas9 RNP, and 1 μL of Alt-R Cas9 electroporation enhancer (IDT) were resuspended in 100 μL of Lonza cell line solution (V4XC-2024/V4XC-1024, Lonza) and nucleofected using a Lonza 4D-Nucleofector X unit. Cas9 RNP treated cells were seeded in 2 mL of complete media and incubated for 96 hours prior to harvesting for analysis.
(§2) For PNA pre-treatments, 1×10^6 cells and 1 μL of PNA diluted to desired concentration in water were similarly nucleofected using Lonza cell line kits and 4D-Nucleofector. PNA nucleofected cells were resuspended in 1.25 mL of complete media in 1.5 mL tubes and incubated at 37° C. for 2 hours before Cas9 RNP nucleofection as described above. After Cas9 RNP nucleofection cells were seeded in 2 mL of complete media and incubated for 96 hours prior to harvesting and analysis.
10^6 stable BFP-expressing K562 cells were nucleofected (Lonza 4D Nucleofector) with a specified dose of BFP cis-protospacer PNA or HBB PNA (0-250 pmol). Two hours later, all conditions were nucleofected with 45 pmol of purified Cas9 RNP using a sgRNA targeted to the BFP gene or targeted to the HBB gene (R-01). 72 hours later, cells with BFP fluorescent drop out (via Cas9 indel formation) were quantified by flow cytometry (Beckman Coulter Cytoflex instrument) for the BFP target (FIG. 3A). For the HBB target (FIG. 3B-3C), 72 hours post-treatment gDNA was extracted (Promega ReliaPrep) and the region of interest was PCR amplified (NEB Phusion). Indel frequency was measured by T7 endonuclease assay (NEB—EnGen Mutation Detection Kit).
(§3) Genomic DNA was purified from 0.5×10^6 cells using Promega ReliaPrep gDNA Tissue Miniprep System (A2052) and eluted in 50 μL of water. Library prep used 100 ng of gDNA input with Ampliseq for Illumina Library Plus kit (20019101, Illumina) and used a custom primer pool designed to amplify a designed panel of genomic targets of interest (Table 9). Libraries were indexed, pooled, and loaded onto a Mid-output (300-cycles, Illumina, FC-420-1004) cartridge for paired-end sequencing on an Illumina Miniseq instrument. FASTQ reads were subjected to quality analysis (Basespace FASTQC) and analyzed for indel frequency using Cas-Analyzer assessment tool (parameters: Comparison range (R)—both ends of full amplicon sequence, Minimum frequency (n)=1). gRNAs used in this study are listed in Table 8, amplicon genomic coordinates listed in Table 9.

Series [3] deals with Cas9 RNP (FANCF, EMX1, ZSCAN2, CCR5, VEGFA gRNAs). The experiment in a line: On-target specificity of Cas9 RNP (ratio of on-target to off-target editing rates). The format is cell-based, human. The protocol: as §2, §3
In the case of EMX1 ON and OFF target amplicons, both regions were amplified from 200 ng of purified gDNA by Phusion High-Fidelity Polymerase (NEB, M0530S) and pooled and purified using QIAGEN PCR purification kit (28104, Qiagen). Library prep used 200 ng of purified amplicon input with Illumina DNA Prep kit (20025519, Illumina). EMX1 libraries were similarly indexed, pooled, sequenced, and analysed as above.
For pre-annealed PAM-distal PNA experiments, 50 pmol of sgRNA and 50 pmol of PAM-distal 10mer PNAs were incubated in a thermocycler at 37° C. for 30 minutes in a 5 μL reaction in 1×3.1 Buffer (B7203S, NEB) to allow annealing. PNA annealing to sgRNAs was confirmed by gel shift on 5% polyacrylamide gel. 45 pmol of SpCas9 (CP02, PNA BIO) was then added at room temperature and incubated for 10 minutes to allow RNP formation. Resulting reaction was delivered to 1×10^6 K562 cells by a single nucleofection and treated as described above.

The test system of series [4] is Cas9 RNP using a sgRNA targeted to the BFP gene. The series can be described thus: Cas9 RNP editing of BFP reporter gene in K562-BFP cells (BFP fluorescent drop out, flow cytometry). The format is cell-based, human. The following applies: for inhibitory effect on Cas9-mediated BFP gene disruption and indel formation: 0-250 pmol nucleofected 2 hours prior to Cas9 RNP. As to the method: as §1, §2
K562 cells were spun down and resuspended in fresh complete media at 300,000 cells/mL 48 hours prior to analysis. Samples for flow cytometry were fixed in complete media with 1% formaldehyde for 15 minutes before spinning down, resuspending in 300 μL PBS, and filtering through a cell strainer capped tube. Samples were analyzed for BFP and GFP fluorescence using a Cytoflex LX instrument (Beckman Coulter) using PacificBlue and FITC lasers, respectively, and quantification and gating was done using FloJo v10 software. Background fluorescent drop out was determined by measurement of mock nucleofected lines in quadruplicate and subtracted from experimental values to determine reported editing frequency.
10^6 stable BFP-expressing K562 cells were nucleofected (Lonza 4D Nucleofector) with a specified dose of PNA or ssDNA oligo (0-250 pmol). Two hours later, all conditions were nucleofected with 45 pmol of purified Cas9 RNP using a sgRNA targeted to the BFP gene. 72 hours later, cells with BFP fluorescent drop out (via Cas9 indel formation) were quantified by flow cytometry (Beckman Coulter—Cytoflex instrument).
In time-course experiments in FIG. 3D, K562 samples were nucleofected with 5 μL RNP reactions with the addition of 100 pmol of ssODN donor in 1 μL of water. RNP nucleofected samples were incubated at 37° C. in complete media before being spun down and nucleofected with 250 pmol of PNA at specified time points. After PNA delivery cells were seeded in 2 mL of complete media and incubated for 96 hours prior to harvesting and analysis.
10^6 stable BFP-expressing K562 cells were nucleofected (Lonza 4D Nucleofector) with specified dose (0-250 pmol, or 250 pmol if unspecified) of specified PNA with sequences homologous to (antispacer) or identical to (cis-spacer) the BFP gRNA spacer sequence. Two hours later, all conditions were nucleofected with 45 pmol of purified Cas9 RNP using a sgRNA targeted to the BFP gene. 72 hours later, cells with BFP fluorescent drop out (via Cas9 indel formation) were quantified by flow cytometry (Beckman Coulter—Cytoflex instrument).
10^6 stable BFP-expressing K562 cells were nucleofected (Lonza 4D Nucleofector) with 45 pmol of purified Cas9 RNP using a sgRNA targeted to the BFP gene. At each specified time point 250 pmol of BFP Anti-protospacer PNA were introduced via nucleofection. For “Cas9 only” condition there was no second PNA nucleofection and for “0 hrs” 250 pmol of PNA was co-nucleofected with Cas9 in a single reaction. After each nucleofection samples were left in fresh media for the duration of the experiment to acquire edits. 72 hours after the “24 hrs” nucleofection, cells for all conditions with BFP fluorescent drop out (via Cas9 indel formation) were quantified by flow cytometry (Beckman Coulter—Cytoflex instrument).

Series [5] deals with dCas9-VPR / POU5F1 sgRNA. The experiment in a line: CRISPRa (dCas9-VPR) POU5F1 expression in stable K562 cells, RT-qPCR. The format is cell-based, human. The conditions noted are these: 250 pmol PNA. As to the method:
Stable K562-hEF1α-dCas9-VPR line was established by lentiviral transduction using Edit-R purified lentiviral particles (Horizon Discovery) and blasticidin selection (5 μg/mL, A1113903, Gibco). dCas9-VPR integration was confirmed by western blot with CRISPR-Cas9 antibody (7A9-3A3, Novus). dCas9-VPR expressing line was further transduced with Edit-R CRISPRa human POU5F1 sgRNA purified lentiviral particles (VSGH11902, Horizon Discovery, Table 4) and puromycin selection (2 μg/mL, Gibco).
4×10^6 stable dCas9-VRP/POU5F1 sgRNA expressing K562 cells (generated using lentivirus from Horizon Discovery), or K562 cells, were nucleofected with 250 pmol of specified PNA (non-targeting BFP or POU5F1) using a Lonza 4D nucleofector. At each specified time point 500 μL of cells were removed from each condition flask, spun down, and frozen. RNA was extracted from each pellet using QIAGEN Rneasy Mini Kits and cDNA was generated using Applied Biosystems High Capacity cDNA reverse transcription kit. rtPCR reactions were conducted for each sample using a StepOnePLUS Real-Time PCR System (Applied Biosystems) using Taqman Fast Advanced Master Mix and TaqMan gene specific probes for POU5F1 and GAPDH. Expression relative to the untreated parent K562 line was recorded as fold-change and calculated using the ΔΔCT method.
For RNA extractions 0.5×10^6 K562 cells were spun down, washed once with PBS, homogenized using QIAshredder columns (QIAGEN 79656) and processed using QIAGEN RNeasy mini kits (74106) before eluting in 50 μL of water. Resulting RNA was used as input for high-capacity cDNA Reverse Transcription Kit (Applied Biosystems) and resulting reaction was diluted 1:5 with water. RT-qPCR reactions were conducted in triplicate for each sample using a StepOnePLUS Real-Time PCR System (Applied Biosystems) and Taqman Fast Advanced Master Mix (Applied Biosystems) with TaqMan gene specific probes (Table 8). Expression relative to the untreated K562 parent line was recorded as fold-change and calculated from averaged CT values using the ΔΔCT method.

[6] abbreviates: 150 pmol dose, three replicates.

{Lys} = L-lysine residue attached to the PNA terminus

As to “AUGGCGUGCAGUGCUUCAGC (chemistry not given here) [Antispacer RNA (melting study), complementary RNA oligomer (length 20nt), IDT]”, the “Tm of duplex with RNA spacer sequence” value in series [1] is 69 °C.
“CCAACTGCAT (all peptide nucleic acid (PNA); further chemistry not fully specified) [HBB R-01 PAMprox 10 mer PNA, 1 Lysine (K) on either end]”: the HBB editing in series [2] (50 pmol PNA (45.2% without PNA)) came to 0.102%. In series [2] (setting [6]), the “mean fold reduction of HBB target editing” value was 2,372 fold and the “total indels detected across 28,104 analyzed amplicons” value turned out to be 6. Besides, the “fold reduction of HBB target editing” value in series [2] (1:1 PNA:sgRNA ratio (50 pmol)) is given as 443 fold.
On to “GCTCGGACTC (all peptide nucleic acid (PNA); further chemistry not fully specified) [EMX1 PAMdist 10 mer PNA]”, for which the “specificity ratio versus Cas9 only” value in series [3] (K562, HEK293, and U2OS cell lines, PNA pre-treatment prior to Cas9 RNP nucleofection) was “significantly increased specificity ratios”. Also, in series [3] (PNA pre-annealed to sgRNA prior to Cas9 RNP formation, delivered as a single complex, K562), the “specificity versus pre-treatment approaches” value is on record as “further improved specificity”.
Regarding “K-ATGGCGTGCA-K (all peptide nucleic acid (PNA), 5' {Lys}, 3' {Lys}) [BFP PAM-proximal PNA]”, the “reduction of BFP editing” value in series [4] (50 pmol dose) turned out to be 96.0%; in series [4] (250 pmol dose), 99.7%. Further, the entries for the “fold reduction in editing” value in series [4] (1:1 PNA:sgRNA molar ratio (50 pmol)) and in series [4] (5:1 PNA:sgRNA ratio (250 pmol)) were 24.5 fold and 342.6 fold, respectively.
In the case of “K-GTGCAGTGCT-K (all peptide nucleic acid (PNA), 5' {Lys}, 3' {Lys}) [BFP PAM-middle PNA]”, the “fold reduction in editing” value in series [4] (5:1 PNA:sgRNA ratio (250 pmol)) came out at 32.4 fold.
For the substance “K-GTGCTTCAGC-K (all peptide nucleic acid (PNA), 5' {Lys}, 3' {Lys}) [BFP PAM-distal PNA]”, in series [4], the “inhibitory effect on Cas9-mediated BFP gene disruption and indel formation” value is “attenuated effect”. Also, the “reduction of BFP editing” value is reported as 10% in series [4] (50 pmol dose) and 32% in series [4] (250 pmol dose).
For the substance “KKK-CCACCATTAGGCAAACATCC-KKK (all peptide nucleic acid (PNA), 5' {Lys}-{Lys}-{Lys}, 3' {Lys}-{Lys}-{Lys}) [POU5F1 CRISPRa PNA]”, in series [5], the “duration of the full effect” value was 2 to 3 days, the “effect on CRISPRa upregulated POU5F1 expression” value is recorded as “down to the level of the parental K562 line”, the “time after treatment at which the effect appears to dissipate” value is “approximately 5 days” and the “time by which POU5F1 expression dropped to the level of the parent line expression” value was ≤ 48 h. Further, in series [5], the “time by which expression began to return to its upregulated baseline” value is ≤ 120 h.
As to “KKK-GGGTTAAGGCAATAGCAATA-KKK [GFP Non-Targeting PNA]”, the results for the “inhibitory effect on Cas9-mediated BFP gene disruption and indel formation” value in series [4] (listed as heterologous GFP PNA) and in series [4] (listed as non-targeting (GFP) PNA) were “no effect” and “entirely ineffective”, respectively.

For the origin of these results see US20240279687A1, “PEPTIDE NUCLEIC ACIDS FOR SPATIOTEMPORAL CONTROL OF CRISPR-CAS BINDING” (Yale University, priority 2021, published 2024).
